# Laboratory results reported in patent US12441706B2, “Protein degradation agent compound preparation method and application” (SHANGHAI JEMINCARE PHARMACEUTICALS CO., LTD., priority 2019, dated 2025).
# Where two headings read alike, the source gives them in different places.
# Key:
# [1] = In vivo pharmacokinetics in mice, intravenous injection and oral administration; design: species or system mouse; details: male CD1 mice
# Experimental: In this experimental example, in vivo pharmacokinetics in mice were evaluated by intravenous injection and oral administration.
# Experimental methods and conditions: Male CD1 mice, aged 6-8 weeks, all animals were free access to food and water, and were given a single dose of the compound to be tested at 1 mg/Kg by intravenous injection (solvent 5% DMSO/15% Solutol/80% Saline), at 5 min, 15 min, 30 min, 1 hr, 2 hr, 4 hr, 8 hr, 24 hr, 48 h after drug administration, or oral gavage administration of 10 mg/kg (solvent 5% DMSO/10% Solutol/85% Saline), at 15 min, 30 min, 1 hr, 2 hr, 4 hr, 6 h, 8 hr, 24 hr, 48 h after administration, blood was collected from the orbit, no less than 50 μL for each sample, heparin sodium was used for anticoagulation, and then placed on ice after collection, and centrifuged within 1 hour to separate the plasma for testing. The plasma concentration of the drug was detected by liquid tandem mass spectrometry (LC/MS/MS), and the pharmacokinetic parameters were calculated by Phoenix WinNonlin software.
# [2] = test system: VCap cells; assay: Inhibition of proliferation of VCap cells (Cell Titer Glo, 6 days); assay type: cell-based; details: Homo sapiens, 144 h
# Experimental: Tumor cell line VCap FGC (ATCC catalog number CRL-2876) was cultured in DMEM (Gibco catalog number 11965-092) medium containing 10% FBS (Gibco catalog number 10099-141C), respectively. During the determination, Vcap cells were replaced with DMEM medium containing 5% FBS and 0.1 nM R1881 (Sigma catalog number R0908).
# (§1) Vcap FGC cells were inoculated in a 384-well plate (Perkin Elmer catalog number 6007460) at a cell density of 1200 cells/well in a volume of 20 μL/well and incubated overnight in a carbon dioxide incubator (Thermo). The prepared compound solutions of different concentrations were added in a volume of 5 μL/well. The corresponding vehicle control was set at the same time. After being cultured in the incubator for 6 days, the cell plate and the contents were equilibrated to room temperature, and 25 μL of Cell Titer Glor (Promega catalog number G7573) was added to each well, shake and mix well, incubated in dark for 10-30 minutes, and the signal values were detected though Envision microplate reader (PerkinElmer).
# (§2) The percentage inhibition rate of compound-treated wells was calculated from vehicle control wells on the plate, and the percentage inhibition rate data corresponding to different concentrations were fitted by GraphPad prism, and the IC50 values were calculated by 4-parameter nonlinear logic formula.
# [3] = test system: LNcap FGC cells; assay: Inhibition of proliferation of LNcap FGC cells (Cell Titer Glo, 6 days); assay type: cell-based; details: Homo sapiens, 144 h
# Experimental: Tumor cell line LNcap FGC (ATCC catalog number CRL-1740) was cultured in RPMI 1640 (Gibco catalog number 11875-093) and DMEM (Gibco catalog number. 11965-092) medium containing 10% FBS (Gibco catalog number 10099-141C), respectively.
# as §1, with “LNcap” for “Vcap”, “400” for “1200”, “shook” for “shake”, “mixed” for “mix”, “with” for “though”
# as §2, with “from the” for “from”
# [4] = target: T1, androgen receptor (Homo sapiens, UniProt P10275, T878A); assay: In-Cell-Western determination of androgen receptor degradation in LnCaP cells; assay type: cell-based; details: for DC50: concentration for half of the maximal degradation of AR in LnCaP cells
# T1 construct: endogenous in cells; host or cells: LNCaP cells
# T1 sequence (P10275 1-920 T878A): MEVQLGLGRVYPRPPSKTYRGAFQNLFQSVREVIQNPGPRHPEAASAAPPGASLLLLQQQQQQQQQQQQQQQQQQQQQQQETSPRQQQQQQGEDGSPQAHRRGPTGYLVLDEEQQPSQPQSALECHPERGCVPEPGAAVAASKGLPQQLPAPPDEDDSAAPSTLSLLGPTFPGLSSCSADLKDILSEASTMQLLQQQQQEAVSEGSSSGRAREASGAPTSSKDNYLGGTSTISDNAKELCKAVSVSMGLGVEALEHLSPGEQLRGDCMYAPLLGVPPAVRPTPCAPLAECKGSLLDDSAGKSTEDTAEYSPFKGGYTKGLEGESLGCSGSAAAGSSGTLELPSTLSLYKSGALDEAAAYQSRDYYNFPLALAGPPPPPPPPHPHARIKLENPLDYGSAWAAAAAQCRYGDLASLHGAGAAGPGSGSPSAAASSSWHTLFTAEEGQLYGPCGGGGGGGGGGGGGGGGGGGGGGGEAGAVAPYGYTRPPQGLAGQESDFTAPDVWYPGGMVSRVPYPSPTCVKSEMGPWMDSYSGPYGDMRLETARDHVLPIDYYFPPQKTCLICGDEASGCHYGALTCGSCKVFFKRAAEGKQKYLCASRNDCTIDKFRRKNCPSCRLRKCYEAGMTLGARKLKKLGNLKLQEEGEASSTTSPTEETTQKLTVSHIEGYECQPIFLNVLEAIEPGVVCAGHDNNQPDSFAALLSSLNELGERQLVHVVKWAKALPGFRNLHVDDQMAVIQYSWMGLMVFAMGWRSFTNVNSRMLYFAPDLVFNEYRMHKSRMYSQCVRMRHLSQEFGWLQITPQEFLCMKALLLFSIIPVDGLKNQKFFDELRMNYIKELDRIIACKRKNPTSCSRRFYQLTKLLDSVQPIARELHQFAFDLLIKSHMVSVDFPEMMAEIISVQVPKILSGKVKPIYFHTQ
# Experimental: The determination evaluated the properties of the compounds in Lncap cells. Intracellular androgen receptor was determined by In-Cell-Western according to the determination steps described below.
# In poly-D-Lysin pretreated 96-well cell culture plate (Corning 3599), LNcap cells were divided into 100 μL/well volume, and inoculated with 30,000 cells/well in LNcap cell assay medium [DMEM containing phenol red (Gibco catalog number: 11995065); fetal bovine serum FBS (Gibco catalog number: 10099141C)]. Cells were cultured for at least two days.
# 1. First treated cells with compound. Compounds were gradient diluted with DMSO and cell culture medium, so that DMSO contained in cell culture plates was diluted to 0.5% —polypropylene plates were used according to the following protocol: (1)(i) 200× stock plate in DMSO was prepared; (ii) 10 mM stock solution was diluted 1:4 with DMSO (10 μL stock solution+40 μL DMSO)=2000 μM, then entered into row 2; (iii) 1:4 (10 μL protac+40 μL DMSO) gradient dilution was performed from row 2 to row 9, and row 1 was reserved for […] reference compound and row 10 for DMSO. (iv) A total of 8 concentrations (final concentrations on the 200× plate were 2000 μM, 400 μM and 80 μM, etc.). (2) (i) 3× stock solution was prepared in the medium. (ii) 3 μL of 200× stock solution was transferred to 197 µL of culture medium (using 12-channel pipette, from line 1 to line 10), i.e. 3× stock solution plate. (iii) The stock solution plate was mixed evenly. (3) (i) The culture medium of […] cells was replaced with fresh culture medium, 100 μL volume culture medium. (ii) The well-mixed 3× stock solution was transferred to the cell culture plate (using a 12-channel pipette, and 50 μL of stock solution was transferred from line 1 to line 10). (iii) Cells were cultured for 24 hours.
# 2. The expression level of intracellular androgen receptor after compound treatment was […] and determined according to the following method.
# (1)(i) Equal volume of 8% paraformaldehyde was added to the cell culture plate for cell fixation. The fixing solution in the cell plate was discarded and washed three times with PBS. (ii) Triton solution (1:1000 dilution of the stock solution) was prepared. The solution in the cell plate was discarded, and 200 μL of Triton diluent was added into each well. (iii) 2×blocking solution (1:4 dilution of 10×blocking stock solution) was prepared. The solution in the cell plate was discarded, and 100 μL of 2×blocking solution was added into each well. (iv) Primary antibody solution (Androgen receptor Rabbbit mAb, Cell Signaling Technology catalog number: 5153; 1:1000 dilution) was prepared. The solution in the cell plate was discarded, 100 μL volume of primary antibody diluent was added to each well, and incubated at 4° C. overnight. (v) The primary antibody solution was discarded and the cell plate was washed with 1×Wash buffer. (vi) Secondary antibody solution (GOAT Antirabbit IgG (H+L), HRP, Thermo catalog number: 31460; 1:5000 dilution) was prepared, and 100 μL volume of secondary antibody dilution was added to each well for incubation. (vii) The secondary antibody solution in the cell plate was discarded and the cell plate was washed with 1×Wash buffer. (viii) TMB chromogenic solution (BD catalog number: 550534) was prepared, and 100 μL chromogenic solution was added into each well. (ix) 50 μL volume of stop solution (BD catalog number: 550534) was added to each well. (x) The absorption values at OD 450 nm and 570 nm were read though EnVision. (2) (i) Normalized analysis was performed on the number of cells in each well. The solution in the cell plate was discarded, and washed with wash buffer for three times. (ii) Janus dilution (1:3 dilution) was prepared. (iii) 50 μL volume diluent was added to each well for incubation. (iv) The solution in the plate was discarded and washed with deionized water. […]
# [5] = mouse, intravenous administration 1 mg/kg, plasma
# [6] = mouse, oral administration 10 mg/kg, plasma
# [7] = LnCaP cell proliferation, 6 days, read-out: IC50
# [8] = maximum degree of inhibition of LnCaP cell proliferation, 6 days, read-out: Emax
structure (smiles),measurement,setting,value
CC1(C)C(=O)N(c2ccc(C#N)c(Cl)c2)c2ccc(-c3ncc(N4CC(CN5CCN(c6ccc7c(c6)C(=O)N(C6CCC(=O)NC6=O)C7=O)CC5)C4)cn3)cc21 (centres unmarked) [Compound 6],F,[1]; oral administration 10 mg/kg vs intravenous 1 mg/kg,71.3%
same,AUC(0-inf),[1]; [5],9860 ng·h/mL
same,clearance,[1]; [5],1.69 mL/min/kg
same,half-life,[1]; [5],11.2 h
same,AUC(0-inf),[1]; [6],70300 ng·h/mL
same,Cmax,[1]; [6],2920 ng/mL
same,half-life,[1]; [6],11.2 h
same,Emax,[2]; VCaP,94%
same,IC50,[2]; VCaP,81 nM
same,Emax,[3]; LNCaP,99%
same,IC50,[3]; LNCaP,76.7 nM
CC1(C)C(=O)N(c2ccc(C#N)c(Cl)c2)c2ccc(-c3ccc(N4CC(F)(CN5CCN(c6ccc7c(c6)C(=O)N(C6CCC(=O)NC6=O)C7=O)CC5)C4)cc3)cc21 (centres unmarked) [Compound 5],IC50,[3]; [7],95.7 nM
same,Emax,[3]; [8],93%
CC1(C)C(=O)N(c2ccc(C#N)c(Cl)c2)c2ccc(-c3ccc(N4CC(CN5CCN(c6ccc7c(c6)CN(C6CCC(=O)NC6=O)C7=O)CC5)C4)cc3)cc21 (centres unmarked) [Compound 4],Dmax,[4]; LNCaP,91%
same,DC50,[4]; 24 hours treatment,108 nM
CC1(C)C(=O)N(c2ccc(C#N)c(Cl)c2)c2ccc(-c3ccc(-c4cnn(CCN5CCN(c6ccc7c(c6)C(=O)N(C6CCC(=O)NC6=O)C7=O)CC5)c4)cc3)cc21 (centres unmarked) [Compound 12],Dmax,[4]; LNCaP,75%
same,DC50,[4]; 24 hours treatment,78.8 nM
same,Emax,[3]; LNCaP,68%
same,IC50,[3]; LNCaP,82 nM
CC1(C)C(=O)N(c2ccc(C#N)c(C(F)(F)F)c2)c2ccc(-c3ccc(N4CC(CN5CCN(c6ccc7c(c6)C(=O)N(C6CCC(=O)NC6=O)C7=O)CC5)C4)nc3F)cc21 (centres unmarked) [Compound 15],Emax,[2]; VCaP,92%
same,IC50,[2]; VCaP,82 nM
same,Dmax,[4]; LNCaP,67%
same,DC50,[4]; 24 hours treatment,3.49 nM
COc1cc(N2C(=O)C(C)(C)c3cc(-c4ccc(N5CC(CN6CCN(c7ccc8c(c7)C(=O)N(C7CCC(=O)NC7=O)C8=O)CC6)C5)cc4)ccc32)ccc1C#N (centres unmarked) [Compound 2],IC50,[3]; [7],89.1 nM
same,Emax,[3]; [8],98%
CC1(C)C(=O)N(c2ccc(C#N)c(Cl)c2)c2ccc(-c3cnc(N4CC(CN5CCN(c6ccc7c(c6)C(=O)N(C6CCC(=O)NC6=O)C7=O)CC5)C4)cn3)cc21 (centres unmarked) [Compound 10],IC50,"[2]; VCaP cell proliferation, 6 days, 5% FBS and 0.1 nM R1881, read-out: IC50",50 nM
same,Emax,"[2]; maximum degree of inhibition of VCaP cell proliferation, 6 days, 5% FBS and 0.1 nM R1881, read-out: Emax",98%
same,IC50,[3]; [7],39.4 nM
same,Emax,[3]; [8],100%
CC1(C)C(=O)N(c2cnc(C#N)c(Cl)c2)c2ccc(-c3ccc(N4CC(CN5CCN(c6ccc7c(c6)C(=O)N(C6CCC(=O)NC6=O)C7=O)CC5)C4)cc3)cc21 (centres unmarked) [Compound 11],DC50,"[4]; 24 hours treatment, read-out: DC50",74.7 nM
same,Dmax,"[4]; maximum degradation of AR in LnCaP cells, 24 hours treatment, read-out: Dmax",74%
CC1(C)C(=O)N(c2ccc(C#N)c(Cl)c2)c2ccc(-c3ccc(-c4cnn(CCCN5CCN(c6ccc7c(c6)C(=O)N(C6CCC(=O)NC6=O)C7=O)CC5)c4)cc3)cc21 (centres unmarked) [Compound 13],Dmax,[4]; LNCaP,100%
same,DC50,[4]; 24 hours treatment,73.4 nM
CC1(C)C(=O)N(c2ccc(C#N)c(Cl)c2)c2ccc(-c3ccc(N4CC(CN5CCN(c6cc7c(cc6F)C(=O)N(C6CCC(=O)NC6=O)C7=O)CC5)C4)cc3)cc21 (centres unmarked) [Compound 7],Dmax,[4]; LNCaP,75%
same,DC50,[4]; 24 hours treatment,72.1 nM
